Several values for one entry are separate records, joined by “and”; a condition that tells them apart may be missing. Equal values may be shown once. Entries after “also recorded” stand apart in the source; their conditions may differ. Where a name gives a salt, the structure may show the parent alone.
Columns and labels:
[1] = biological target: T1, hERG (Homo sapiens, UniProt Q12809); experiment: Whole-cell patch-clamp, protective effect of 10:0-18:0 Lyso PG and 14:0 EGPG against hERG inhibition by Nilotinib; type: cell-based; parameters: expressed in transfected cells; host or cells: HEK 293, stably transfected with the hERG gene (HEK-hERG); conditions: for protective effect against hERG inhibition by Nilotinib (in words): PLs/Nilo ratio 9:1; for inhibition of the hERG tail current (in words): lipid alone or Nilotinib 0.5 μg/mL formulated with lipid […] (9:1)
T1 sequence (Q12809 whole entry): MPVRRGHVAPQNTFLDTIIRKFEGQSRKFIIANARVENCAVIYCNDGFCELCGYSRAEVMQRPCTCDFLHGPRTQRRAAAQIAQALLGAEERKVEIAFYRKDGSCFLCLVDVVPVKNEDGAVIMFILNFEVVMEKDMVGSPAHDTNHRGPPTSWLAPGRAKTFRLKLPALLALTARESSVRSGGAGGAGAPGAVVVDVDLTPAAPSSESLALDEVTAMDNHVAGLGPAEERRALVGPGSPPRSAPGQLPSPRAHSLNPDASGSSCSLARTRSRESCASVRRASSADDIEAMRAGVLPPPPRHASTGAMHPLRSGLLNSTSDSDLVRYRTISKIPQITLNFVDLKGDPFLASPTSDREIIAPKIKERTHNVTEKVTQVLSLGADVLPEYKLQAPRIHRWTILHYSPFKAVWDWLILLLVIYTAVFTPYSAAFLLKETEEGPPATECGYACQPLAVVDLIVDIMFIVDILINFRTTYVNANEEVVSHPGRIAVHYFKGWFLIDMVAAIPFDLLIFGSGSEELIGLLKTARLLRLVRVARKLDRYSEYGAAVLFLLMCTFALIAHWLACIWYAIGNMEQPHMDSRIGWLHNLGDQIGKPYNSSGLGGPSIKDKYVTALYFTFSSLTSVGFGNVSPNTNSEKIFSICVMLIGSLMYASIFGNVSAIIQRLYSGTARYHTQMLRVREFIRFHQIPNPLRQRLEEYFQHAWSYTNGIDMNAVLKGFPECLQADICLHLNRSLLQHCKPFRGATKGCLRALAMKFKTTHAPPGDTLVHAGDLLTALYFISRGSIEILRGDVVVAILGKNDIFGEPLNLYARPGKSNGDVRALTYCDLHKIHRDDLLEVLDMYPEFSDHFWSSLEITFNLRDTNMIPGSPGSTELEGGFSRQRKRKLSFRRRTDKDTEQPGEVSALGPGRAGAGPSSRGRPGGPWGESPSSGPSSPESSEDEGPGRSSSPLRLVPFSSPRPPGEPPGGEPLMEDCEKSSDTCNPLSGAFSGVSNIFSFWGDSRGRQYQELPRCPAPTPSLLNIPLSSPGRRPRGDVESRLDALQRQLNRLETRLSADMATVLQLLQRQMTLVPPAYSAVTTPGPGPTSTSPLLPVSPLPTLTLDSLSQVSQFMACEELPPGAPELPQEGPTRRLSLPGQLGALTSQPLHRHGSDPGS
Protocol: The purpose of this study is to evaluate in vitro the protective effect of 10:0 Lyso PG, 12:0 Lyso PG, 14:0 Lyso PG, 16:0 Lyso PG, 18:0 Lyso PG and 14:0 EGPG on the rapidly activating delayed-rectifier potassium selective current (IK) generated under normoxic conditions in stably transfected Human Embryonic Kidney cells (HEK 293 cells).
The test samples were prepared as follows. […] The solution was vortexed for 10 minutes before being used in the patch-clamp assay.
Test performed: Whole-cell patch-clamp current acquisition and analysis. Temperature: 35±2° C. Original data acquisition design: Acquisition Rate(s): 1.0 kHz.
Patch-clamp current recording. […] Isolated cells were plated into 2-mL experimental chambers, mounted on the platform of an inverted microscope. The cells were superfused with external solution (in mM: NaCl 140.0, KCl 5.0, CaCl2 1.8, MgCl2 1.0, HEPES 10.0, dextrose 10.0, pH 7.4±0.05). A 2-10 MΩ resistance pipette was filled with the pipette solution (in mM: KCl 140.0, MgCl2 1.0, Mg-ATP 4.0, EGTA 5.0, HEPES 10.0, sucrose 10.0, pH 7.4±0.05), and brought to contact the external membrane of a single cell.
Application of test samples: 5 minutes of exposure to each concentration in presence of closed circuit perfusion (2 mL/min). 5 minutes for washout periods in presence of a flow-through perfusion (2 mL/min) in addition to a closed circuit perfusion (2 mL/min). […] Cells were under continuous stimulation of the pulses protocol throughout the studies and cell currents were recorded after 5 minutes of exposure to each condition.
Statistical analysis: Statistical comparisons were made using paired Student's t-tests, comparing each treatment period with its corresponding value at the baseline condition. The currents recorded after the exposure of each test sample were compared to the currents recorded in baseline conditions. Differences were considered significant when p≤0.05.
Effect of the Test Samples on whole-cell IKr hERG currents. Whole-cell currents elicited during a voltage pulse were recorded in baseline conditions and following the application of the selected concentration of test sample. The cells were depolarized for one second from the holding potential (−80 mV) to a maximum value of +40 mV, starting at −40 mV and progressing in 10 mV increments. The membrane potential was then repolarized to −55 mV for one second, and finally returned to −80 mV.
Whole-cell tail current amplitude was measured at a holding potential of −55 mV, following activation of the current from −40 to +40 mV. Current amplitude was measured at the maximum (peak) of this tail current. Current density was obtained by dividing current amplitude by cell capacitance measured prior to capacitive transient minimization.
Current run-down and solvent effect correction. All data points presented in this example were corrected for solvent effect and time-dependent current run-down. Current run-down and solvent effects were measured simultaneously by applying the study design in test sample-free conditions over the same time frame as was done with the test sample. The loss in current amplitude measured during these so-called vehicle studies (representing both solvent effects and time-dependent run-down) was subtracted from the loss of amplitude measured in the presence of the test sample to isolate the effect of the test sample, apart from the effect of the solvent and the inevitable run-down in current amplitude over time.

[2] = biological target: T1, hERG; experiment: Whole-cell patch-clamp, protective effect of DMPC, DMPG, DMPC/DMPG, LysoPG and LysoPC against hERG inhibition by Nilotinib; conditions: for inhibition of the hERG tail current density (in words) / Corrected Normalized Current Density / Normalized Current Density: HEK 293; for inhibition of the hERG tail current density (in words): lipid alone or Nilotinib 0.1 μM formulated in aqueous solution with lipid; for Corrected Normalized Current Density: corrected for solvent effect and current run-down, baseline 1.000; for Corrected Normalized Current Density / Normalized Current Density: Nilotinib 0.1 μM (alone in DMSO, with lipid in aqueous solution), 14:0 LysoPG […]; for Normalized Current Density: hERG tail current density relative to baseline 1.000, 5 min exposure; for protection against hERG inhibition caused by Nilotinib (in words): in vitro, co-formulated with Nilotinib
[3] = test system: Male Hartley guinea pigs; experiment: Moxifloxacin-induced QTc prolongation in guinea pigs, oral phospholipids; type: in vivo, guinea pig; conditions: for mitigation of MF-induced QT prolongation (in words): oral gavage 2 hours before 20 mg/kg i.v. MF, PL to drug ratio 1:1 (FIG. 11A)
[4] = test system: Sprague Dawley male rats; experiment: Moxifloxacin-induced QTc prolongation in rats, oral complex pre-treatment; type: in vivo; conditions: rat; Moxifloxacin 20 mg/kg i.v. over 20 minutes
From the text: Methods. The present inventors formulated the product in a complex mixture as an oral application in order to facilitate drug delivery in cancer patients being treated with oral LQTS inducing drugs. Preclinical evaluation of the oral application was done by instrumented Sprague Dawley male (250-300 g) rats. Cutaneous ECG leads were used to maximize T wave detection. The animals in groups of 3 rats were briefly anesthetized with a light dose of isoflurane, and a pre-treatment ECG was obtained to establish well-defined T waves, and to rule-out existing arrhythmic predispositions. Pre-treatment ECG profiles were normal.
A single dose of the oral complex in the ratio of 9:1 Moxifloxicin was vortexed continuously for 5 minutes to obtain an emulsion and immediately administered by gavage. Moxifloxacin, a broad spectrum antibiotic with documented LQTS activity, was formulated in DMSO and 2 hours afterwards infused intravenously (femoral canula) over 20 minutes at a starting dose of 2.8 mg/kg. ECGs were recorded from 5 minutes prior to and during the 20 minute infusion. Then the animals were dosed at 6.1 mg/kg over 20 minutes; then 20 mg/kg over 20 minutes. In a positive control group moxifloxacin was infused alone. In a second group of rats the complex was given orally 2 hours prior to the first dose of moxifloxacin. […]

[5] = test system: HEK293 cell; conditions: 20 μM, 24 h incubation; cited from earlier work
[6] = test system: rabbits; conditions: intravenous injection of 20 mg; cited from earlier work

CCCCCCCCCC(=O)OC[C@@H](O)COP(=O)([O-])OCC(O)CO.[Na+] (mixture of isomers) [10:0 LysoPG, 1-decanoyl-2-hydroxy-sn-glycero-3-[phospho-rac-(1-glycerol)] sodium salt]
protective effect against hERG inhibition by Nilotinib (in words) [1]: prevented the inhibition | inhibition of the hERG tail current (in words) [1]: did not cause any inhibition

CCCCCCCCCCCC(=O)OC[C@@H](O)COP(=O)([O-])OCC(O)CO.[Na+] (mixture of isomers) [12:0 LysoPG, 1-dodecanoyl-2-hydroxy-sn-glycero-3-[phospho-rac-(1-glycerol)] sodium salt]
protective effect against hERG inhibition by Nilotinib (in words) [1]: prevented the inhibition | inhibition of the hERG tail current (in words) [1]: did not cause any inhibition

CCCCCCCCCCCCCC(=O)OC[C@@H](O)COP(=O)(O)OCC(O)CO (mixture of isomers) [14:0 LysoPG, 1-myristoyl-2-hydroxy-sn-glycero-3-[phospho-rac-(1-glycerol)] sodium salt]
protective effect against hERG inhibition by Nilotinib (in words) ([1]; listed as 14:0 Lyso PG, sodium salt): higher protective | protective effect against hERG inhibition by Nilotinib (in words) ([1]; sodium salt): prevented the inhibition; also recorded: most potent | inhibition of the hERG tail current (in words) [1]: did not cause any inhibition | inhibition of the hERG tail current density (in words) [2]: did not cause any inhibition | Corrected Normalized Current Density [2]: 1.124 | Normalized Current Density [2]: 0.930 | protection against hERG inhibition caused by Nilotinib (in words) [2]: protects against hERG inhibition

CCCCCCCCCCCCCCCC(=O)OC[C@@H](O)COP(=O)([O-])OCC(O)CO.[Na+] (mixture of isomers) [16:0 LysoPG, 1-palmitoyl-2-hydroxy-sn-glycero-3-[phospho-rac-(1-glycerol)] sodium salt]
protective effect against hERG inhibition by Nilotinib (in words) ([1]; listed as 16:0 Lyso PG, sodium salt): higher protective | protective effect against hERG inhibition by Nilotinib (in words) ([1]; sodium salt): prevented the inhibition; also recorded: most potent | inhibition of the hERG tail current (in words) [1]: did not cause any inhibition

CCCCCCCCCCCCCCCCCC(=O)OC[C@@H](O)COP(=O)([O-])OCC(O)CO.[Na+] (mixture of isomers) [18:0 LysoPG, 1-stearoyl-2-hydroxy-sn-glycero-3-[phospho-rac-(1-glycerol)] sodium salt]
protective effect against hERG inhibition by Nilotinib (in words) [1]: prevented the inhibition | inhibition of the hERG tail current (in words) [1]: did not cause any inhibition

CCCCCCCCCCCCCC(=O)OCCOP(=O)(O)OCC(O)CO.N (centres unmarked) [14:0 EGPG, 2,3-dihydroxypropyl(2-[tetradecanoyloxy]ethyl)phosphate (ammonium salt)]
mitigation of MF-induced QT prolongation (in words) [3]: prevented the MF-induced QTs prolongation | protective effect against hERG inhibition by Nilotinib (in words) ([1]; (ammonium salt)): prevented the inhibition; also recorded: higher protective | inhibition of the hERG tail current (in words) [1]: did not cause any inhibition

CCCCCCCCCCCCCC(=O)OC[C@H](COP(=O)([O-])OCC(O)CO)OC(=O)CCCCCCCCCCCCC.[Na+] (some centres unmarked) [DMPG, 1,2-dimyristoyl-sn-glycero-3-[phosphoric-(1-glycerol)] (sodium salt)]
mitigation of MF-induced QT prolongation (in words) [3]: prevented the MF-induced QTs prolongation | inhibition of the hERG tail current density (in words) [2]: did not cause any inhibition | Corrected Normalized Current Density [2]: 0.994 | Normalized Current Density [2]: 0.800 | protection against hERG inhibition caused by Nilotinib (in words) ([2]; (sodium salt)): protects against hERG inhibition; also recorded: abrogated the effects of nilotinib

COc1c(N2C[C@@H]3CCCN[C@@H]3C2)c(F)cc2c(=O)c(C(=O)O)cn(C3CC3)c12 [Moxifloxacin]
QTc prolongation ([3]; 20 mg/kg i.v. MF): 35 ms | QTc prolongation [4]: 48 ms and 55 ms

Cc1cn(-c2cc(NC(=O)c3ccc(C)c(Nc4nccc(-c5cccnc5)n4)c3)cc(C(F)(F)F)c2)cn1 [Nilotinib, reference compound]
inhibition at 5 min, 1 μM ([1]; human, HEK 293 cells stably transfected with hERG, pH 7.4, read-out: inhibition of the hERG tail current): 70%

COc1cc(/C=C/C(=O)/C=C(O)/C=C/c2ccc(O)c(OC)c2)ccc1O [curcumin, Curcumin]
HEK293 cell viability [5]: reduced the HEK293 cell viability | cardiac repolarization manifested by QTc values [6]: did not affect the cardiac repolarization

From patent publication US10258691B2 (SignPath Pharma Inc., priority 2014, dated 2019)
